Measured values taken from patent US20090209605A1, “NEMATICIDAL COMPOSITIONS” (Devgen N.V., priority 2004, published 2009).

Key:
Assay type in all cases: in vivo
Meloidogyne nematodes = assay: Pot Assay 2: Meloidogyne infection of tomato, % infestation of roots; details: for % INF. (% Infestation): tomato in infested soil
Protocol: The soil used in this assay originated from a plot, heavily infested with Meloidogyne nematodes. Part of this soil was sterilized by autoclaving and was used as negative control. Sandy soil, which was not infested with nematodes, was pursued from a commercial source.
Plastic seedling trays with wells of 60 ml capacity were filled with about 40 ml of soil per well. 5 ml of water per well was used for irrigation.
Compounds as described herein were tested in 4 different rates and with 12 replicates for each concentration. The compounds as described herein were stored as dry films of 4 different concentrations. The day of the application of the compounds, all the dry films were dissolved in 60 ml water and poured into the 12 replicate wells: 5 ml per well. Every tray of 12 wells was identified with a label, indicating compound and concentration used. The 4 final rates in the soil of the tested compound were approximately 0.05 mg, 0.20 mg, 1 mg and 5 mg. These amounts translate to field application rates respectively as 30, 120, 600 and 3000 g per hectare.
3-5 days after application of the tested compound, tomato seeds (cv. Rio Grande) were sown in the wells by hand, at about 2 cm deep. A light cover of vermiculite on the surface was used to avoid dehydration. Plants were irrigated by micro-nebulization 3-4 times per week at a rate of 3 L/m^2, weeded by hand and treated with fertilizers, fungicide and insecticides when needed.
Their resistance against nematode infection was monitored and the efficacy of compounds described herein as a nematicide was measured. Furthermore the phytotoxicity of the test compounds was evaluated.
Efficacy of the compounds described herein as nematicide was measured by giving the roots a percentage of infestation measured as follows. Plants were grown to reach good development of the roots, which corresponds to plants grown to about 10 cm high at about one month after emergence. After removal of the soil from the roots by rinsing with water, the roots were visually inspected and root galls were counted on 4 plants of the set of 12 replicate plants.
Positive control plants were treated with a 10 micromolar concentration of oxamyl (Vydate, 10% SL; the rate of 10 micromolar corresponds to a commercial rate of 20 l/ha), a known nematicide. Negative controls involved double negative controls (no compound, sterile soil), and single negative controls (no compound, with nematode infested soil).

tomato (cv. Rio Grande) = assay: Pot Assay 2: root development (vigor of roots) of tomato; details: for ROOT DEV.: visual value 0 to 10 (10 equal to control)
Protocol: Phytotoxicity of compounds as described herein when used as a nematicide, was measured as follows. […] At that moment, plant emergence was assessed for the plants treated with any of the compounds as described herein, by counting the number of plants per compound-concentration.
Vigor of roots was also assessed once the plants are well established so as not to loose plants. To assess vigor of the plants or roots, a visual value ranging from 0 to 10 (0 no vigor, 10 equal to control) was scored per compound-concentration.

Meloidogyne incognita = assay: Root infestation on agar plate: root knot count on potato microplant roots; details: 60 μM in agar, galls counted 5 weeks after inoculation, four replicates
Protocol: 9 cm petri dishes were filled with a 15 ml agar. One stem cutting of a potato microplant (Solanum tuberosum cv. Desirée) was placed on top of the agar layer. After 2 to 3 weeks of incubation at 20° C., the root system was sufficiently developed to be inoculated.
The test compounds (see Table 1) were added 2 days before inoculation by way of spreading a 2 ml DMSO-solution with the compound over the agar and allowing the compound to diffuse in the agar during two days at constant temperature of 20° C. During incubation, the plates are protected from light in a dark incubator. The resulting concentration of each compound in each agar plate was 60 μM.
After incubation, approximately 400 axenic juveniles of Meloidogyne incognita species were added to the plate.
The plates were incubated in the dark at a constant temperature of 20° C. and 5 weeks after inoculation the number of galls formed on the roots were determined by counting. Also any toxic effect of the test compounds on the roots was recorded. 8 weeks after inoculation the plates were stored at low temperature.
Each compound was tested in four replicates. Positive controls were treated with different concentrations of Aldicarb, a known nematicide. Negative controls included 5 replicates of double negative controls (no compound, no nematode), 5 replicates of single negative controls (no compound, with nematode) and 5 replicates of DMSO controls (DMSO solution, with nematode).

[1] = system: Meloidogyne incognita nematodes; assay: Pot Assay 1: Meloidogyne infection of potato, egg masses/galls on roots; details: potato in pot, week 8 after inoculation
Protocol: 500 ml clay pots were filled with 400 ml of silver sand. One tuber of potato ( Solanum tuberosum cv. Bintje) was planted in the sand. After 2 to 3 weeks incubation, the potato plant was sufficiently developed to be inoculated.
Plants were grown under the usual standard greenhouse conditions at 14° C.-18° C., with 16 hours light and 8 hours dark and 80-90% relative humidity. The pots were watered using individual drippers and fertilizers were added under the form of macro- and micro nutrients according to plant growth requirements. When needed, the plants were sprayed with fungicides and insecticides.
The compounds as described herein were added one day before inoculation. The compounds were dissolved in a 20 ml DMSO-solution and spread over the sand surface. The final concentration is calculated under the assumption that the compound is diffused entirely in the pot. This process occurred during two days at the normal greenhouse conditions described above.
After compound incubation, approximately 1500 juveniles of Meloidogyne incognita nematodes were added to the pots.
The pots were incubated at the described greenhouse conditions until nematode development was completed. At week 8 after inoculation the number of galls formed on the roots was counted after washing off the sandy substrate. Also the effect of the compound on the plant development was recorded.
Every compound was tested in three replicates. Positive control plants were treated with different concentrations of aldicarb, a known nematicide. Negative controls involved 12 replicates of double negative controls (no compound, no nematode), 12 replicates of single negative controls (no compound, no DMSO, with nematode), 24 replicates of DMSO controls (DMSO solution, with nematode).
As assessment of the root development was taken into account.

[2] = reference, 10 micromolar (Vydate, 10% SL)

Q: Which “% INF. (% Infestation)” value (Meloidogyne nematodes; RATE 1 mg) does the source give for `CNC(=O)O/N=C(\SC)C(=O)N(C)C` [Oxamyl, reference compound] here?
A: 13.8%

Q: What about the percentage of infestation (Meloidogyne nematodes; [2]) of the same molecule?
A: 13.8%

Q: And the “ROOT DEV.” value (tomato (cv. Rio Grande); RATE 1 mg)?
A: 7.5

Q: What about the root development (tomato (cv. Rio Grande); [2]) of the same molecule?
A: 7.5

Q: Which results are given for `CC(C)N(C(=O)COc1nnc(C(F)(F)F)s1)c1ccc(F)cc1` [XIII]?
A: Root knot count, average of the replicate counts (Meloidogyne incognita): 9.5; number of egg masses (galls) on roots, Replicate 3 ([1]; 10 μM): 40; number of egg masses (galls) on roots, Replicate 1 ([1]; 50 μM): 60; number of egg masses (galls) on roots, Replicate 3 ([1]; 50 μM): 30

Q: How did the “Root knot count, average of the replicate counts” value (“Root knot count, average” for short) (Meloidogyne incognita) turn out when `CC(C)(C)N(NC(=O)c1ccc(Cl)cc1)C(=O)c1ccccc1` [XIX] was run?
A: 10.75

Q: What about the “number of egg masses (galls) on roots, Replicate 3” value (“number of egg masses … Replicate 3” for short) ([1]; 10 μM) of the same molecule?
A: 80

Q: What about the “number of egg masses (galls) on roots, Replicate 1” value ([1]; 50 μM) of the same molecule?
A: 60

Q: What about the “number of egg masses (galls) on roots, Replicate 2” value ([1]; 50 μM) of the same molecule?
A: 45

Q: What about the “number of egg masses … Replicate 3” value ([1]; 50 μM) of the same molecule?
A: 20

Q: Which results are given for `Clc1nc(Cl)nc(Nc2ccccc2Cl)n1` [XLII]?
A: Root knot count, average of the replicate counts (Meloidogyne incognita): 17.25; % INF. (% Infestation) (Meloidogyne nematodes; RATE 0.05 mg): 3.8%; % INF. (% Infestation) (Meloidogyne nematodes; RATE 0.2 mg): 0.0%; % INF. (% Infestation) (Meloidogyne nematodes; RATE 1 mg): 0.0%; % INF. (% Infestation) (Meloidogyne nematodes; RATE 5 mg): 0.0%; ROOT DEV. (tomato (cv. Rio Grande); RATE 0.05 mg): 6.8; ROOT DEV. (tomato (cv. Rio Grande); RATE 0.2 mg): 6.9; ROOT DEV. (tomato (cv. Rio Grande); RATE 1 mg): 8.2; ROOT DEV. (tomato (cv. Rio Grande); RATE 5 mg): 8.1

Q: Which results are given for `CC(C)(C)C(O)C(Oc1ccc(-c2ccccc2)cc1)n1cncn1` (stereo not drawn) [XLVIII]?
A: Root knot count, average of the replicate counts (Meloidogyne incognita): 12.75; % INF. (% Infestation) (Meloidogyne nematodes; RATE 0.05 mg): 0.0%; % INF. (% Infestation) (Meloidogyne nematodes; RATE 0.2 mg): 1.3%; % INF. (% Infestation) (Meloidogyne nematodes; RATE 1 mg): 3.8%; % INF. (% Infestation) (Meloidogyne nematodes; RATE 5 mg): 1.3%; ROOT DEV. (tomato (cv. Rio Grande); RATE 0.05 mg): 7.5; ROOT DEV. (tomato (cv. Rio Grande); RATE 0.2 mg): 7.4; ROOT DEV. (tomato (cv. Rio Grande); RATE 1 mg): 7.2; ROOT DEV. (tomato (cv. Rio Grande); RATE 5 mg): 7.8

Q: With `Cc1cc(C)nc(Nc2ccccc2)n1` [XLVI] as the molecule, how does the “Root knot count, average” value (Meloidogyne incognita) read?
A: 18.25

Q: Which “Root knot count, average” value (Meloidogyne incognita) does the source give for `Nc1nc(N)nc(NC2CC2)n1` [XLV] here?
A: 19.5

Q: `O=[N+]([O-])N=C1NCCN1Cc1ccc(Cl)nc1` [XXII] was tested. Which “Root knot count, average” value (Meloidogyne incognita) did it give?
A: 12

Q: Which results are given for `C#CCOC(=O)/C=C(C)/C=C/CC(C)CCCC(C)C` (stereo not drawn) [XXVIII]?
A: Root knot count, average of the replicate counts (Meloidogyne incognita): 8.5; % INF. (% Infestation) (Meloidogyne nematodes; RATE 0.05 mg): 2.5%; % INF. (% Infestation) (Meloidogyne nematodes; RATE 0.2 mg): 1.3%; ROOT DEV. (tomato (cv. Rio Grande); RATE 0.05 mg): 7.4; ROOT DEV. (tomato (cv. Rio Grande); RATE 0.2 mg): 7.8

Q: For `CS(=O)(=O)c1cc(C(F)(F)F)ccc1C(=O)c1cnoc1C1CC1` [XXVI], which “Root knot count, average” value (Meloidogyne incognita) is on record?
A: 8.75

Q: What about the “% INF. (% Infestation)” value (Meloidogyne nematodes; RATE 0.05 mg) of the same molecule?
A: 1.3%

Q: What about the “% INF. (% Infestation)” value (Meloidogyne nematodes; RATE 0.2 mg) of the same molecule?
A: 3.8%

Q: And the “% INF. (% Infestation)” value (Meloidogyne nematodes; RATE 1 mg)?
A: 0.0%

Q: What about the “ROOT DEV.” value (tomato (cv. Rio Grande); RATE 0.05 mg) of the same molecule?
A: 7.4

Q: What about the “ROOT DEV.” value (tomato (cv. Rio Grande); RATE 0.2 mg) of the same molecule?
A: 6.6

Q: And the “ROOT DEV.” value (tomato (cv. Rio Grande); RATE 1 mg)?
A: 7.8

Q: How did the “Root knot count, average” value (Meloidogyne incognita) turn out when `CCOc1ccc([Si](C)(C)CCCc2ccc(F)c(Oc3ccccc3)c2)cc1` [XXXIII] was run?
A: 17.5

Q: Which “Root knot count, average” value (Meloidogyne incognita) does the source give for `CCc1nn(C)c(C(=O)NCc2ccc(C(C)(C)C)cc2)c1Cl` [XXXVIII] here?
A: 16.5

Q: What about the “number of egg masses (galls) on roots, Replicate 1” value ([1]; 50 μM) of the same molecule?
A: 40

Q: What about the “number of egg masses (galls) on roots, Replicate 2” value ([1]; 50 μM) of the same molecule?
A: 70

Q: And the “number of egg masses … Replicate 3” value ([1]; 50 μM)?
A: 1
